Assay [1] relates to A549 (Lung Adenocarcinoma). As to the kind of experiment: Cell viability analysis, lung cancer A549. It is filed as cell-based, human. Conditions: Homo sapiens, A549, 72 h.
The test system of a further assay is cancer cell lines. The assay is described as follows: Cell viability analysis (WST-1) on cancer cell lines. It is filed as cell-based, human. Conditions: drug 10 μM, 72 hours, WST-1; Table 3. (In general: Tetrazolium assays rely on reduction of a dye to a coloured formazan, in cell work by metabolically active cells.)
For assay [2], the system named is PC3 (p53−) (Prostate Adenocarcinoma). As to the kind of experiment: Cell viability analysis, prostate cancer PC3. It is filed as cell-based, human. The settings on record: Homo sapiens, 72 h.
Assay [3] has as its system MCF7 (Mammary Gland, Adenocarcinoma). As to the kind of experiment: Cell viability analysis, breast cancer MCF7. It is filed as cell-based, human. Conditions: Homo sapiens, MCF7, 72 h.
Assay [4] concerns HL-60 (Acute Promyelocytic Leukemia). The assay is described as follows: Cell viability analysis, leukemia HL-60. It is filed as cell-based, human. Conditions: Homo sapiens, HL-60, 72 h.
The subject of assay [5] is HeLa (Cervix Adenocarcinoma). As to the kind of experiment: Cell viability analysis, cervical cancer HeLa. The class given is cell-based, human. Conditions: Homo sapiens, HeLa, 72 h.
In assay [6] the test system is AGS (Gastric Adenocarcinoma). The assay is described as follows: Cell viability analysis, gastric cancer AGS. It is filed as cell-based, human. Conditions: Homo sapiens, 72 h.
Assay [7] deals with HCT116 (p53+) (Colorectal Carcinoma). The assay is described as follows: cells. Conditions: Homo sapiens, HCT-116, 72 h, read-out: cell viability (survival rate), HCT116.
Assay [8] relates to HI650 (Lung Adenocarcinoma). The assay is described as follows: Cell viability analysis, lung cancer HI650. It is filed as cell-based, human. The settings on record: Homo sapiens, NCI-H1650, 72 h.
The test system of assay [9] is HepG2 (Hepatocellular Carcinoma). The assay is described as follows: Cell viability analysis, hepatic cancer HepG2. The class given is cell-based, human. The settings on record: Homo sapiens, HepG2, 72 h.
Assay [10] deals with A375 (Amelanotic Melanoma). As to the kind of experiment: Cell viability analysis, skin cancer A375. The class given is cell-based, human. The settings on record: Homo sapiens, A-375, 72 h.
For assay [11], the system named is MKN-45 (Gastric Adenocarcinoma). As to the kind of experiment: Cell viability analysis, gastric cancer MKN-45. The class given is cell-based, human. The settings on record: Homo sapiens, MKN-45, 72 h.
Assay [12] relates to LoVo (Colorectal Adenocarcinoma). As to the kind of experiment: Cell viability analysis, colon cancer LoVo. The class given is cell-based, human. The settings on record: Homo sapiens, LoVo, 72 h, read-out: cell viability (survival rate), LoVo, drug 10 μM, 72 hours, WST-1, OD450 nm.
Assay [13] relates to TSGH-8301 (Urinary Bladder Carcinoma). The assay is described as follows: Cell viability analysis, bladder cancer TSGH-8301. Conditions: Homo sapiens, 72 h. It is filed as cell-based, human.
Setting [14] is: drug 10 μM, 72 hours, WST-1, OD450 nm, read-out: cell viability (survival rate), A549.
The mark [15] stands for this setting: drug 10 μM, 72 hours, WST-1, OD450 nm, read-out: cell viability (survival rate), PC3.
Setting [16] is: drug 10 μM, 72 hours, WST-1, OD450 nm, read-out: cell viability (survival rate), MCF7.
Where [17] appears, read: drug 10 μM, 72 hours, WST-1, OD450 nm, read-out: cell viability (survival rate), HL-60.
The mark [18] stands for this setting: drug 10 μM, 72 hours, WST-1, OD450 nm, read-out: cell viability (survival rate), HeLa.
[19] abbreviates: drug 10 μM, 72 hours, WST-1, OD450 nm, read-out: cell viability (survival rate), AGS.
The mark [20] stands for this setting: drug 10 μM, 72 hours, WST-1, OD450 nm, read-out: cell viability (survival rate), H1650.
Where [21] appears, read: drug 10 μM, 72 hours, WST-1, OD450 nm, read-out: cell viability (survival rate), HepG2.
Setting [22] is: drug 10 μM, 72 hours, WST-1, OD450 nm, read-out: cell viability (survival rate), A375.
[23] abbreviates: drug 10 μM, 72 hours, WST-1, OD450 nm, read-out: cell viability (survival rate), MKN-45.
The mark [24] stands for this setting: drug 10 μM, 72 hours, WST-1, OD450 nm, read-out: cell viability (survival rate), TSGH.
The mark [25] stands for this setting: read-out: cell viability (survival rate), A549, drug 10 μM, 72 hours, WST-1, OD450 nm.
Where [26] appears, read: read-out: cell viability (survival rate), PC3, drug 10 μM, 72 hours, WST-1, OD450 nm.
Where [27] appears, read: read-out: cell viability (survival rate), MCF7, drug 10 μM, 72 hours, WST-1, OD450 nm.
[28] abbreviates: read-out: cell viability (survival rate), HL-60, drug 10 μM, 72 hours, WST-1, OD450 nm.
Setting [29] is: read-out: cell viability (survival rate), HeLa, drug 10 μM, 72 hours, WST-1, OD450 nm.
The mark [30] stands for this setting: read-out: cell viability (survival rate), AGS, drug 10 μM, 72 hours, WST-1, OD450 nm.
Where [31] appears, read: read-out: cell viability (survival rate), H1650, drug 10 μM, 72 hours, WST-1, OD450 nm.
The mark [32] stands for this setting: read-out: cell viability (survival rate), HepG2, drug 10 μM, 72 hours, WST-1, OD450 nm.
Where [33] appears, read: read-out: cell viability (survival rate), A375, drug 10 μM, 72 hours, WST-1, OD450 nm.
[34] abbreviates: read-out: cell viability (survival rate), MKN-45, drug 10 μM, 72 hours, WST-1, OD450 nm.
Setting [35] is: read-out: cell viability (survival rate), TSGH, drug 10 μM, 72 hours, WST-1, OD450 nm.

Experimental findings from US10105357B2, “Indication of antibiotic drugs for preparation of cancer inhibition pharmaceutical composition” (LAUNX BIOMEDICAL CO., LTD., priority 2014, dated 2018) are described below.

Where a name gives a salt, the structure may show the parent alone. Read-outs that look alike come from different tables or passages of the source.

In the case of `NC[C@H]1O[C@H](O[C@H]2[C@H](O)[C@@H](O[C@H]3O[C@H](CO)[C@@H](O)[C@H](N)[C@H]3O)[C@H](N)C[C@@H]2N)[C@H](N)[C@@H](O)[C@@H]1O` [Bekanamycin], the viability at 10 µM in [1] (setting [14]) is 58.3%; in assay [2] (setting [15]), 76.3%; in assay [3] (setting [16]), 57.5%; in assay [4] (setting [17]), 96.8%; in [5] (setting [18]), 95.2%; in assay [6] (setting [19]) it was 81.7%. Besides, the viability at 10 µM in assay [7] was found to be 73.6%; in [8] (setting [20]), 80.8%; in assay [9] (setting [21]) it was 85.3%; in assay [10] (setting [22]), 55.5%; in assay [11] (setting [23]), 74.5%; in [12], 96.9%. Besides, the viability at 10 µM in assay [13] (setting [24]) came out at 76.2%. Also, the “inhibition effect on different cancer cell lines” value in the assay on cancer cell lines is reported as “significant inhibition effect”.
As to `CN1CCN(c2cc3c(cc2F)c(=O)c(C(=O)O)cn3-c2ccc(F)cc2)CC1` [Difloxacin HCl], the viability at 10 µM turned out to be 64.5% in assay [1] (setting [14]); 77.3% in [2] (setting [15]); 52.3% in assay [3] (setting [16]); 77% in assay [4] (setting [17]); 130% in [5] (setting [18]); 82.9% in assay [6] (setting [19]). Besides, the viability at 10 µM worked out at 96.7% in [7]; 77.5% in assay [8] (setting [20]); 71.2% in assay [9] (setting [21]); 58.5% in [10] (setting [22]); 79.4% in [11] (setting [23]); 95.7% in assay [12]. Also, the viability at 10 µM in assay [13] (setting [24]) was found to be 52%. Further, in the assay on cancer cell lines, the “inhibition effect on different cancer cell lines” value is “significant inhibition effect”.
For `CCn1nc(C(=O)O)c(=O)c2cc3c(cc21)OCO3` [Cinoxacin], the viability at 10 µM was 74.2% in [1] (setting [25]); 87% in assay [2] (setting [26]); 74.9% in assay [3] (setting [27]); 109% in assay [4] (setting [28]); 64% in assay [5] (setting [29]); 83.2% in assay [6] (setting [30]). Besides, the viability at 10 µM came to 66.2% in assay [7]; 67.1% in [8] (setting [31]); 69.7% in [9] (setting [32]); 68.3% in assay [10] (setting [33]); 98.9% in [11] (setting [34]); 97% in assay [12]. Moreover, in assay [13] (setting [35]), the viability at 10 µM came to 71.5%. In addition, in the assay with cancer cell lines, the “inhibition effect on different cancer cell lines” value is “significant inhibition effect”.
As for `CCc1c(Cl)c(O)c(Cl)c(O)c1C(=O)O[C@H]1[C@H](O)[C@H](OC)[C@H](OC/C2=C\C=C\C[C@H](O)/C(C)=C/[C@H](CC)[C@@H](O[C@@H]3OC(C)(C)[C@@H](OC(=O)C(C)C)[C@H](O)[C@@H]3O)/C(C)=C/C(C)=C/C[C@@H]([C@@H](C)O)OC2=O)O[C@@H]1C` [Fidaxomicin], the viability at 10 µM amounted to 40.6% in assay [1] (setting [25]); 59.4% in [2] (setting [26]); 46.6% in assay [3] (setting [27]); 99.2% in assay [4] (setting [28]); 82.2% in assay [5] (setting [29]); 94.9% in assay [6] (setting [30]). Besides, the viability at 10 µM in assay [7] was 102%; in assay [8] (setting [31]), 61.2%; in assay [9] (setting [32]), 99.6%; in assay [10] (setting [33]), 70.3%; in assay [11] (setting [34]), 94.2%; in [12] it was 89.6%. Besides, the viability at 10 µM in assay [13] (setting [35]) was 82.4%. In the assay with cancer cell lines, the “inhibition effect on different cancer cell lines” value was “significant inhibition effect”.

Usually viability stands for a read-out of living cells in per cent, often relative to untreated cells.
